Test results: US20250171496A1, “FUSION PEPTIDE FOR REGULATING ACTIVATION OF MAM AND USE THEREOF” (UIF (University Industry Foundation), Yonsei University, priority 2023, published 2025)
Where no end group is shown, it is not given here.

Experiments:
[1] = test system: Hela cells; assay: SPLICS (ER-mitochondria split-GFP) proximity assay; format: cell-based; conditions: Hela cells transfected with SPLICS vector, 10 mM EtOH, peptide 20 μM, 1 hour, vs control (DW)
From the text: To this end, MAM regulatory activity was verified using the SPLICS (ER-mitochondria split-GFP) system, which allows observation of the proximity between intracellular organelles through fluorescence emission. The SPLICS system is a system that can efficiently image the proximity of intracellular organelles based on the principle that split-GFP fluorescence is emitted when two organelles are within approximately 10 to 40 nm of each other. As the two organelles approach, complementation of GFP occurs, resulting in fluorescence at the junction. It is to be noted that increased contact between ER and mitochondria may lead to cellular stress and dysfunction.
First, to observe the change in the distance between the ER and mitochondria due to treatment with the fusion peptides, Hela cells were transfected with the SPLICS vector. Afterwards, the HeLa cells were treated with the fusion peptides and the area (%) of GFP fluorescence relative to the total area per cell was measured. […] That is to say, it was observed from the decrease in green fluorescence in the groups treated with the fusion peptides of the present disclosure that the two organelles were moving apart from each other.

[2] = test system: HUVEC cells; assay: MTT assay (cell proliferation); format: cell-based, human; conditions: 0-300 μM, up to 72 hours
Description: Human umbilical vein endothelial cells (HUVECs) were cultured in EBM-2 medium supplemented with FBS (2%, v/v) and antibiotics. After seeding the cells in a 96-well plate at 3,000 cells/well and culturing the same, they were treated with the prepared fusion peptides on the next day at concentrations of 0, 100, 200, and 300 μM. After 0, 24, 48, and 72 hours, MTT solution (2 mg/mL) was treated at a concentration of 0.4 mg/mL. After culturing for 3 hours, the medium was removed and the cells were treated with DMSO. Then, fluorescence was measured at 540 nm.
Afterwards, 3-[4,5-dimethylthiazol-2-yl]-2,5-diphenyltetrazolium bromide (MTT) assay, which allows observation of cell proliferation by fluorescence, was performed to confirm the optimal concentration of the fusion peptide 4 in the HUVEC cells.

[3] = test system: ApoE knockout mice; assay: Atherosclerosis animal model (high-cholesterol diet, ApoE knockout mice); format: in vivo; conditions: 50 mg/kg intraperitoneally every 2 days for 8 weeks
Description: Animal experiment was performed in accordance with the guidelines approved by the Institutional Animal Care and Use Committee of Yonsei University (IACUC-A-202404-1847-02). 6-week-old male ApoE knockout B6.KOR/StmSlc-Apoeshl mice were housed in a specific pathogen-free system with a 12-hour light-dark cycle with free access to food and water, and randomly divided into three groups (control, positive control, and test groups). Then, the sample was injected intraperitoneally to the control group (vehicle), the positive control group (CTS (cryptotanshinone), 20 mg/kg), and the test group (peptide, 50 mg/kg) once every two days for 8 weeks while feeding the mice with a high-cholesterol diet until the end of the experiment (for 8 weeks).
After sacrificing the mice, PBS perfusion was performed through the left ventricle, and the heart, artery, and blood were obtained. The artery was cut along the bifurcation of the iliac artery, spread out, fixed with pins, and fixed in 10% formaldehyde for 16 hours. After staining with Oil-Red-O for 16 hours, the samples were washed with PBS and images were obtained using a microscope (NS-6T, China).
The fusion peptide 4 (50 mg/kg) was injected intraperitoneally every 2 days for 8 weeks into an animal model of atherosclerosis (high-cholesterol diet, ApoE knockout mice).

Substance	GFP fluorescence signal (area of GFP fluorescence relative to the total area per cell), SPLICS [1]	cell proliferation (MTT) [2]	body weight [3]
YARVRRRGPRR-DTETKME (YARVRRRGPRRDTETKME) [fusion peptide 3]	significant decrease in fluorescence signals		
YARVRRRGPRR-GGG-FSTAADGQTQ (YARVRRRGPRRGGGFSTAADGQTQ) [fusion peptide 2, CPP Hph-1 linked to Peptide 2 (GGG-…), GRP75 motif]	significant decrease in fluorescence signals		
YARVRRRGPRRRSIYYLGIGPT [fusion peptide 4, YARVRRRGPRR-RSIYYLGIGPT]		no inhibition of cell proliferation was observed even at concentrations of 100-200 μM	did not affect the body weight
YARVRRRGPRR-FSTAADGQTQ (YARVRRRGPRRFSTAADGQTQ) [fusion peptide 1]	significant decrease in fluorescence signals		
